Where a SMILES comes first, the peptide text is derived from it.

The test system of one data set is LPS-activity. As to conditions: cited from earlier work.
Data set [1] relates to human pulmonary microvascular endothelial cells. The data set is described as follows: Microvascular angiogenesis (sprouting) assay in Matrigel. As to conditions: for angiogenic (core) activity in sprouting assay: human vascular endothelial cells, as demonstrated herein; for angiogenic activities (total tube length): Matrigel, increasing concentrations, t=24 h, data not shown. The class given is cell-based. The procedure: Human pulmonary microvascular endothelial cells (Hpmec, HUVE, or other vascular EC, may also be used) were cultured in EBM-2 medium (Lonza, CC-3156) supplemented with 10% FBS and all components present in the bullet kit (Lonza, CC-4147) containing human recombinant FGF-B, human recombinant VEGF, human recombinant R3-IGF-1, ascorbic acid, human recombinant EGF and GA-1000 (Gentamicin sulfate-Amphotericin). 24 hours prior to the assay Hpmec were starved in EBM-2 medium containing 0.5% FBS instead of 10% FBS. For introduction in the angiogenesis assay, endothelial cells were washed 2 times with warm PBS, trypsinized and resuspended in serum free EBM-2 medium. For the angiogenesis assay, Matrigel (Fisher Scientific, Landsmeer, The Netherlands #11523550) was diluted 1:1 in serum-free EBM-2 medium and plated in a 96-well plate (50 μL). After polymerization, the cells were combined with the experimental peptide fragments and added on top of the Matrigel (100 μL). Pictures of the microvascular network were taken after 24 hours of incubation with a 4× objective and analysed using the plug-in angiogenesis analyser in ImageJ.

The subject of the next data set is NOD mice. The settings on record: cited from earlier work.
The next data set deals with TNF-α and IL-6. As to conditions: rat, hemorrhagic shock; cited from earlier work.
A short description of data set [2]: Distribution and elimination of intravenously injected [14C]-AQGV from mice. The format is in vivo, male CD-1 mice. The procedure:
The present study, which was conducted by TNO Biosciences, Utrechtseweg, Netherlands, was designed to provide data on the distribution and metabolism of [^14C]-AQGV (Ala-Gln-[1-^14C]Gly-Val) in male CD-1 mice following a single intravenous dose of 50 mg/kg. To this end, mice were sacrificed at 10, 30 and 60 minutes, and 6 and 24 hours after administration of radiolabeled AQGV, counts in various tissues were determined, and the radioactivity present in the urine and plasma were analyzed by HPLC.

The test system of a further data set is mTOR. The settings on record: piglets; cited from earlier work.
The next data set deals with human CD4+ cells. The data set is described as follows: Human CD4+ lymphocyte-migration assay (modified Boyden chamber). The format is cell-based. The procedure:
A: Synthetic human-C-peptide (1-31, having ERC-binding-motif LGGGPG) was tested in human CD4+ lymphocyte-migration assay together with negative and treatment controls: no C-peptide added, scrambled version of human C-peptide (1-31, lacking any xGxxPx motif) and pig-C-peptide (1-29, ˜74% similarity to human C-peptide but lacking any xGxxPx motif; alignment with human C-peptide shown herewith).
Freshly isolated human CD4+ cells were incubated for 3 h with the indicated C-peptide variants (10 nM) to assess the effect on cell migration in a modified Boyden chamber. Results are expressed as the mean±SEM, ****P<0.001 treatments vs. control.
B: Freshly isolated human CD4 cells were preincubated for 3 h with V14 peptide (10 μM) or lactose (10 mM) and then stimulated with C-peptide (1-31) for 3 H as indicated in (A). Results are expressed as the mean±SEM. *P<0.05, ****P<0.001 treatments vs. control, […] ###P<0.001 treatments vs. human C-peptide (1-31).

In data set [3] the test system is human umbilical vein endothelial cells. As to conditions: dose-dependent; cited from earlier work.
Data set [4] has as its system streptozotocin-induced diabetic mice. The settings on record: supplement using osmotic pumps; cited from earlier work.
Where [5] appears, read: after 10 minutes, 50 mg/kg i.v.

Regarding LQAV, in the data set with LPS-activity, the LPS-activity in vitro result was “significantly inhibited”.
On to VLPALA, for which, in the data set on LPS-activity, the LPS-activity in vitro entry is “significantly inhibited”.
In the case of “GAYPGAPGAYPGAPAPGV [18-meric peptide derived from the human N-terminal fragment of galectin-3]”, the “angiogenic (core) activity in sprouting assay” value (“angiogenic (core) activity” below) in data set [1] is “have angiogenic core activities”.
“VGVAPGVGVAPGVGVAPG [18-meric peptide derived from human elastin]”: the “angiogenic (core) activity” value in data set [1] is “core-angiogenic activities have been demonstrated”.
Consider PGAYPG, for which, in [1], the “angiogenic activities (total tube length)” value (“angiogenic activities” below) is “significantly induced angiogenic activities” and the “angiogenic (core) activity” value is reported as “have angiogenic core activities”.
Regarding VLPALP, the T1D-onset entry in the data set with NOD mice is on record as “significantly (p<0.0001) delay”. The LPS-activity in vitro result in the data set on LPS-activity was “significantly inhibited”.
Take LQGV: the T1D-onset entry with NOD mice was “significantly (p<0.0001) delay”. Further, the LPS-activity in vitro entry in the data set on LPS-activity is “significantly inhibited”. In the data set on TNF-α and IL-6, the “systemic release of IL-6” value is recorded as “significantly (p<0.001) prevented” and the “systemic release of TNF-α” value is recorded as “significantly (p<0.001) prevented”.
Regarding LOGA, in the data set with LPS-activity, the LPS-activity in vitro entry is on record as “significantly inhibited”.
As to Ala-Gln-[1-^14C]Gly-Val [[^14C]-AQGV], the “average total recovery of radioactivity” value in data set [2] (10 minutes after dose administration) turned out to be 83.2%; in data set [2] (30 minutes after dose administration) it was 70.5%; in [2] (60 minutes after dose administration), 62.9%; in data set [2] (6 hours after dose administration), 52.6%; in data set [2] (24 hours after dose administration) it was 50.8%. Moreover, the “administered radioactivity excreted in feces” value in [2] (after 24 hours) is 2.6%. In addition, in data set [2] (after 24 hours), the “administered radioactivity excreted in urine” value is 10.2%. The “removal from the blood” value in data set [2] (after intravenous injections) is reported as “rapidly removed”. Also, the “radioactivity in the blood, amount present if all of the counts were in intact peptide” value in data set [2] (blood, 10 minutes after single intravenous dose of 50 mg/kg) was determined as 17.2 µg/g. The “concentration of "peptide" (radioactivity) in kidneys” value in data set [2] (setting [5]) was found to be 362 µg/g; in data set [2] (after 24 hours, 50 mg/kg i.v.), 61.9 µg/g. The “concentration of "peptide" (radioactivity) in liver” value in data set [2] (setting [5]) worked out at 105 µg/g; in data set [2] (after 24 hours, 50 mg/kg i.v.) it was 37.6 µg/g. Also, the “concentration of "peptide" (radioactivity) in lung” value in [2] (lung, after 10 minutes, 50 mg/kg i.v.) stood at 75.2 µg/g. Further, the “time to full hydrolysis of the peptide after administration” value in data set [2] (mice) stood at 15 min. In addition, in [2] (plasma after 10 minutes, HPLC, 50 mg/kg i.v.), the “parent compound in plasma” value is on record as “No parent compound could be detected”. Further, the “concentration of "peptide" (radioactivity) in skin” value in data set [2] (skin, after 24 hours, 50 mg/kg i.v.) worked out at 37.5 µg/g. In addition, the “concentration of "peptide" (radioactivity) in spleen” value worked out at 74.7 µg/g in data set [2] (setting [5]) and 39.3 µg/g in [2] (after 24 hours, 50 mg/kg i.v.). Further, the “concentration of "peptide" (radioactivity) in testis” value in data set [2] (testis, after 10 minutes, 50 mg/kg i.v.) was 85.7 µg/g. Also, the “concentration of "peptide" (radioactivity) in thymus” value in data set [2] (thymus, after 24 hours, 50 mg/kg i.v.) came to 43.1 µg/g. Moreover, in data set [2] (up to 24 hours), the “administered radioactivity exhaled as volatiles, most likely 14C-CO2” value was “About 50%”. Besides, in data set [2] (urine, HPLC, 50 mg/kg i.v.), the “parent compound in urine” value is “No parent compound was detected”.
On to `C[C@H](N)C(=O)N[C@@H](CCC(N)=O)C(=O)O` [AQ, Alanyl-glutamine] (H-Ala-Gln-OH), for which, in the data set on mTOR, the autophagy-inhibition entry is given as “demonstrated”.
As for AQGV, in the data set on LPS-activity, the LPS-activity in vitro result was “significantly inhibited”. For the same molecule, in the data set with TNF-α and IL-6, the “systemic release of IL-6” value is on record as “significantly (p<0.001) prevented” and the “systemic release of TNF-α” value was “significantly (p<0.001) prevented”.
For the molecule VGVAPG, in [1], the “angiogenic activities” value is “significantly induced angiogenic activities” and the “angiogenic (core) activity” value is “core-angiogenic activities have been demonstrated”.
Take ALPALP: the LPS-activity in vitro result in the data set with LPS-activity is reported as “significantly inhibited”.
On to LGGGPG, for which the “angiogenic activities” value in data set [1] is “significantly induced angiogenic activities”.
LAGV: the LPS-activity in vitro result with LPS-activity is listed as “significantly inhibited”. Moreover, in the data set on TNF-α and IL-6, the “systemic release of IL-6” value is reported as “significantly (p<0.001) prevented” and the “systemic release of TNF-α” value is “significantly (p<0.001) prevented”.
In the case of human C-peptide, in the data set on human CD4+ cells (10 nM, 3 h incubation), the “effect on CD4+ lymphocyte migration” value was “upregulating effect”. The “concentration of maximal effect on endothelial cell migration and tube formation” value in data set [3] is listed as 0.5 nM. In data set [4], the “rate of skin wound closure” value is listed as “significantly increased”.
Turning to VLPAAP, in the data set on LPS-activity, the LPS-activity in vitro result was “significantly inhibited”.
On to VAPALP, for which the LPS-activity in vitro result with LPS-activity is reported as “significantly inhibited”.
In the case of VLAALP, the LPS-activity in vitro entry in the data set with LPS-activity is “significantly inhibited”.
`OC[C@H]1O[C@@H](O[C@H]2[C@H](O)[C@@H](O)C(O)O[C@@H]2CO)[C@H](O)[C@@H](O)[C@H]1O` (stereo partly drawn) [lactose]: the “effect on CD4+-migratory effects of C-peptide” value with human CD4+ cells (preincubated 3 h with V14 peptide (10 μM) or lactose (10 mM), then C-peptide (1-31)) is on record as “blunted”.

Source of the values: patent US20240398894A1, “ANGIOGENIC CONTROL, PREFERABLY COMBINED WITH GLYCAEMIC CONTROL” (BIOTEMPT B.V., priority 2021, published 2024).
